Data: patent US8486948B2, “Piperazinodihydrothienopyrimidine derivatives” (Boehringer Ingelheim International GmbH, priority 2007, dated 2013)

Target: PDE4B (Homo sapiens, UniProt Q07343)
Test: Scintillation Proximity (SPA) assay, inhibition of PDE4B at 1 μM
Format: biochemical
Conditions: Table D; test substance 1 μM; one hour incubation with [H3]-cAMP at 30° C.
Procedure: The inhibitions (in %) at 1 μM of the individual Example substances are included in the following Tables of Examples and were determined as follows:
The Scintilation Proximity (SPA) Assays (GE Healthcare, No. TRKQ7090) make use of the different affinities of cyclic 3″-5″-adenosine monophosphate (cAMP, low affinity) and linear 5′-adenosine monophosphate (AMP, high affinity) for yttrium silicate scintillator beads. The cAMP specific phosphodiesterase (PDE) PDE4B cleaves the 3′-phosphoester bond of the tritium-labelled [H3]-cAMP to form the [H3]-5′-AMP. Because of its higher affinity for the scintillator beads this [H3]-AMP accumulates on the beads and causes scintillation events (flashes of light) which are measured in a Wallac Microbeta Scintillation Counter.
The test starts with one hour's incubation of [H3]-cAMP with the PDE4B enzyme in assay buffer at 30° C., once with the Example substance that is to be tested (in a concentration of 1 μM) and once without the Example substance that is to be tested. After this incubation the reaction is stopped by the addition of the beads. The beads are given an opportunity to settle over the next 45 minutes, then they are measured in the Scintillation Counter. If the substance is capable of inhibiting the enzymatic activity of the PDE4B, less [H3]-AMP is formed during the incubation phase and fewer scintillation events can be measured.

Chain of PDE4B (Q07343 whole entry, species assumed): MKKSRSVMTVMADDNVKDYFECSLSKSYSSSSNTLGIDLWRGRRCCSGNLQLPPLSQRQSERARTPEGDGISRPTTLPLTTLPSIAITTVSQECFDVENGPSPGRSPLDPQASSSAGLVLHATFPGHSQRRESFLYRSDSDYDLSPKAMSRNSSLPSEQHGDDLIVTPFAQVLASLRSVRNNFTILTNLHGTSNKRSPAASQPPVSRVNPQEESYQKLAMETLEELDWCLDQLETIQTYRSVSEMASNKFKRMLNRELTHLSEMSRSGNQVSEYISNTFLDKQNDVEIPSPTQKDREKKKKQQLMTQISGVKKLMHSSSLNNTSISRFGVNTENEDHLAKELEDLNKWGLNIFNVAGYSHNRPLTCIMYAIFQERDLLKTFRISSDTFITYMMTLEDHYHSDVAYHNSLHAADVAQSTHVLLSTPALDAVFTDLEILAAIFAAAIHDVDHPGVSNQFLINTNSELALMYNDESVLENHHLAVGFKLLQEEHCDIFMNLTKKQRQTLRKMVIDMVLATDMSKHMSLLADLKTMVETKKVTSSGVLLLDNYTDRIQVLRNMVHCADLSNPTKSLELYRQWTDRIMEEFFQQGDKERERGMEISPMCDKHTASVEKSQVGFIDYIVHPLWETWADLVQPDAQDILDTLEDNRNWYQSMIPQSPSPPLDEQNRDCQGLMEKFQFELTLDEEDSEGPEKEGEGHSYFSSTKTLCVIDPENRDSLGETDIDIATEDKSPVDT

SMILES | inhibition at 1 µM [%]
O=C(c1cn2c(n1)CN(c1nc3c(c(NC4CCOCC4)n1)[S+]([O-])CC3)CC2)N1CCOCC1 (centres unmarked) [Example 48, Morpholin-4-yl-{7-[5-oxo-4-(tetrahydropyran-4-ylamino)-6,7-dihydro-5H-5λ^4-thieno[3,2-d]pyrimidin-2-yl]-5,6,7,8-tetrahydroimidazo[1,2-a]pyrazin-2-yl}-methanone] | 93
CN1CCC(N(C)C(=O)c2cn3c(n2)CN(c2nc4c(c(NC5CCOCC5)n2)[S+]([O-])CC4)CC3)CC1 (centres unmarked) [Example 49] | 93
CN(C(=O)c1cn2c(n1)CN(c1nc3c(c(NC4CCOCC4)n1)[S+]([O-])CC3)CC2)C1CC1 (centres unmarked) [Example 50] | 93
CC(C)(NC(=O)c1cn2c(n1)CN(c1nc3c(c(NC4CCOCC4)n1)[S+]([O-])CC3)CC2)c1ccncc1 (centres unmarked) [Example 53] | 94
CN(C(=O)c1cn2c(n1)CN(c1nc3c(c(NC4CCOCC4)n1)[S+]([O-])CC3)CC2)C1CCOCC1 (centres unmarked) [Example 54] | 94
O=C(c1cn2c(n1)CN(c1nc3c(c(NC4CCOCC4)n1)[S+]([O-])CC3)CC2)N(C1CCOCC1)C1CC1 (centres unmarked) [Example 55] | 93

Further lines, results first:

inhibition at 1 µM [%] | SMILES
96 | CN1C[C@@H](Nc2nc(N3CCn4c(nnc4-c4ccc(F)cc4)C3)nc3c2[S+]([O-])CC3)CCC1=O (some centres unmarked) [Example 47]
94 | Cc1nn(C)c(C)c1CNC(=O)c1cn2c(n1)CN(c1nc3c(c(NC4CCOCC4)n1)[S+]([O-])CC3)CC2 (centres unmarked) [Example 51]
93 | Cc1nn(C)cc1C(C)NC(=O)c1cn2c(n1)CN(c1nc3c(c(NC4CCOCC4)n1)[S+]([O-])CC3)CC2 (centres unmarked) [Example 52]
94 | Cc1cn(C)nc1CN(C)C(=O)c1cn2c(n1)CN(c1nc3c(c(NC4CCOCC4)n1)[S+]([O-])CC3)CC2 (centres unmarked) [Example 56]
94 | Cc1nn(C)cc1CNC(=O)c1cn2c(n1)CN(c1nc3c(c(NC4CCOCC4)n1)[S+]([O-])CC3)CC2 (centres unmarked) [Example 57]
